Assay results published in US11084847B2, “Polyamide compound and use thereof” (SICHUAN KELUN-BIOTECH BIOPHARMACEUTICAL CO., LTD., priority 2016, dated 2021).
Where two headings read alike, the source gives them in different places.

Legend:
MOR = MOR (Homo sapiens, UniProt P35372); assay: Opioid receptor selectivity, radioligand competition binding (3H-DAMGO) on cell membranes
Description: (§1) The selectivity of the compounds of the invention for κ opioid receptors was determined by measuring the inhibitory effect of the compounds of Examples on the […] of KOR, MOR, and DOR.
(§2) The compounds of Examples at different concentrations were incubated with the cell membrane with high expression of KOR, MOR, DOR and the corresponding radioligand (KOR: 3H-diprenophrine; MOR: 3H-DAMGO; DOR: 3H-DADLE) for 1 h, the compounds of Examples competed with the radioligands for binding to KOR, MOR, DOR. After the incubation, Cell harvest was used to collect cell membranes onto a Unifilter-96 GF/C filter plate, and the unbound radioligands were washed away. The plate was placed in a 50-degree oven for 1 h, and finally the scintillation solution Microscint 20 cocktail was added and the isotope signal was detected by MicroBeta2 Reader.
(§3) According to the intensity of the isotope signal at different concentrations, the IC50 was calculated by means of fitting with a four-parameter equation, and the Ki value was calculated.
(§4) The Ki value was calculated according to the formula Ki=IC50/(1+[radioligand]/Kd), and Kd was the equilibrium dissociation constant of radioligand.

male ICR mice = assay: Acetic acid-induced writhing test in mice; assay type: in vivo; design: ED50: unit not given here
Description: The analgesic effect of the compound of the invention was evaluated by measuring the ED50 of the compounds of Examples in the acetic acid-induced writhing test in mice.
The commercial glacial acetic acid solution was diluted with physiological saline to 0.6% glacial acetic acid solution. The male ICR mice were randomly separated into the drug group and the model group (to which physiological saline was administration). 15 minutes after iv administration, 0.6% acetic acid solution was intraperitoneally injected at 10 ml/kg, and the mice was immediately recorded with DV camera for 15 min. After the recording, the number of writhes of the mice within 15 min was counted from the video by blind method, the inhibition rate for the writhes was calculated according to Formula (I), and the ED50 of the compound was calculated according to Formula (II).
(I) The inhibition rate for the writhes was calculated by the formula: Inhibition rate (%)=(the number of writhes in a model group−the number of writhes in a drug group)/the number of writhes in a model group*100.
(II) The ED50 was calculated by the formula:
[formula] wherein Xm was the logarithm of the highest dose, d was the difference in the logarithm of two adjacent doses, p was the inhibition rate for each dose group, pm was the highest-dose inhibition rate, and pn was the lowest-dose inhibition rate.

DOR = DOR (Homo sapiens, UniProt P41143); assay: Opioid receptor selectivity, radioligand competition binding (3H-DADLE) on cell membranes
Description: as §1, §2, §3, §4

[1] = Pharmacokinetic (PK) study in rats; assay type: in vivo; conditions: male SD rats, intravenous, 1 mg/kg
Description: The pharmacokinetic profile of the compounds of Examples was studied by intravenous administration of the compounds of Examples to male SD rats. The dose for IV administration was 1 mg/kg, and the solvent was 5% DMSO: 5% solutol: 90% physiological saline. After IV administration, blood samples were collected at different time points for PK study. Plasma were treated by protein precipitation and then analyzed by LC-MS/MS.
In LC-MS/MS, mass spectrum was API 5500, and liquid chromatography was Shimadzu LC-30AD system. The column used for the test groups of Compound 3 and Compound 4 was Thermo C18 column (4.6 mm×100 mm, 3 μm); for mobile phases, phase A was water+0.1% formic acid, and phase B was methanol; the flow rate was 0.8 mL/min, and the column temperature was 40° C. The column used for the test group of Compound 5 was Agela AQ C18 column (2.1 mm×50 mm, 1.9 μm); for mobile phases, phase A was water+0.05% formic acid+5 mM acetic acid ammonium, and phase B was methanol+0.05% formic acid; the flow rate was 0.6 mL/min, and the column temperature was 40° C. The ion source used was the ESI source in positive ion mode, and the scanning mode was Multiple Reaction Monitoring (MRM).

[2] = target: T1, human κ-opioid receptor (KOR) (Homo sapiens, UniProt P41145); assay: κ-opioid receptor agonistic effect (inhibition of adenylate cyclase, cAMP assay); assay type: cell-based; conditions: CHO cells stably expressing human KOR; NKH477-stimulated cAMP; four-parameter fit; read-out: ED50 (the source's name)
T1 construct: expressed in transfected cells
Description: The efficacy of the compounds of the invention as κ-opioid receptor agonists was determined by measuring the ability of the compounds of Examples to inhibit adenylate cyclase activity.
Cell culture: hamster ovary cells CHO stably expressing human κ-opioid receptor (KOR) gene were cultured in MEMα plus nucleosides medium (Invitrogen) containing 5% FBS.
Stimulation: the test compound was 4-fold diluted in a gradient manner to obtain 11 concentrations, and 100 nl of each was transferred to a 384-well plate, and then a stimulating solution (5 uL) containing NKH477 (Tocris) was added; the cells were digested, re-suspended, and counted; and then the cells (5 uL) were added to wells, mixed gently, and incubated at 37° C. for 30 min.
Detection: cAMP Assay Kit (Cisbio) was used, cAMP-D2 and Anti-cAMP-Cryptate were added separately, and the resultant mixture was incubated for 1 h at room temperature. The plate was read using envision (Perkin Elmer) and EC50 was obtained by means of fitting with a four-parameter equation.

[3] = Ability of compounds to pass through the blood-brain barrier (plasma and brain tissue concentration); assay type: in vivo; conditions: rat, male rats, iv 1 mg/kg; for concentration at 5 min: 5 min after administration; for concentration at 15 min: 15 min after administration; for concentration at 30 min: 30 min after administration; for concentration at 60 min: 60 min after administration
Description: After peripheral intravenous administration of the compound of each Example to the animal, samples of peripheral plasma and brain tissue were taken to determine the concentration of the compound in the peripheral plasma and brain tissue.
After intravenously injected with the compound of Example 5 at 1 mg/kg to male rats, samples of plasma and brain tissues were taken at various time points, and the contents of the test compound in the peripheral plasma and brain tissue were determined.

KOR = KOR (Homo sapiens, UniProt P41145); assay: Opioid receptor selectivity, radioligand competition binding (3H-diprenophrine) on cell membranes
Description: as §1, §2, §3, §4

[4] = brain, read-out: Concentration in brain tissue
[5] = plasma, read-out: Concentration in peripheral plasma

With `COCCOCCNCCCC[C@@H](NC(=O)[C@@H](CC(C)C)NC(=O)[C@@H](Cc1ccccc1)NC(=O)[C@H](N)Cc1ccccc1)C(=O)N1CCC(N)(C(=O)O)CC1` [Example 5, 4-amino-1-((R)-2-((R)-2-((R)-2-((R)-2-amino-3-phenylpropanamido)-3-phenylpropanamido)-4-methylpentanamido)-6-((2-(2-methoxyethoxy)ethyl)amino)hexanoyl)piperidin-4-carboxylic acid] the Ki (MOR; Ki=IC50/(1+[radioligand]/Kd), read-out: MOR Ki) was greater than 7180 nM, the IC50 (MOR; radioligand 3H-DAMGO, 1 h incubation, read-out: MOR IC50) was greater than 20000 nM and the “analgesic effect (in words)” value (male ICR mice; acetic acid-induced writhing, mice, iv) was “significant analgesic effect”. The ED50 (male ICR mice; iv administration 15 min before 0.6% acetic acid ip, writhes counted within 15 min) was 0.017, the Ki (DOR; Ki=IC50/(1+[radioligand]/Kd), read-out: DOR Ki) was greater than 12000 nM and the IC50 (DOR; radioligand 3H-DADLE, 1 h incubation, read-out: DOR IC50) was greater than 20000 nM. The “pharmacokinetic profile (in words)” value [1] was “good exposure amount and Cmax”, the AUC(0-t) ([1]; rat, plasma) was 783 ng·h/mL and the Cmax ([1]; rat, plasma) was 1690 ng/mL. It also gave a Vd ([1]; rat, plasma) of 0.53 L/kg, a half-life ([1]; rat, plasma) of 16.8 min and an EC50 [2] of 0.05 nM. For the same compound, the concentration at 5 min [3, 4] was 0 ng/mL, the concentration at 15 min [3, 4] was 0 ng/mL and the concentration at 30 min [3, 4] was 0.2 ng/mL. It also gave a concentration at 60 min [3, 4] of 0 ng/mL, a concentration at 5 min [3, 5] of 1310 ng/mL and a concentration at 15 min [3, 5] of 716 ng/mL. For the same compound, the concentration at 30 min [3, 5] was 386 ng/mL, the concentration at 60 min [3, 5] was 136 ng/mL and the “KOR selectivity (in words)” value (KOR; KOR versus MOR and DOR binding) was “excellent KOR selectivity”. The Ki (KOR; Ki=IC50/(1+[radioligand]/Kd), read-out: KOR Ki) was 0.02 nM and the IC50 (KOR; radioligand 3H-diprenophrine, 1 h incubation, read-out: KOR IC50) was 0.05 nM.
